Laboratory results as given in patent publication US8329685B1, “Enhancement of the action of anti-infective agents and of central and peripheral nervous system agents and transportation of nucleic acid substances” (priority 2001, dated 2012).

Test system: M.Tb. drug resistant strain TV25
Format: cell-based, Mycobacterium tuberculosis

Compound: NNC(=O)c1ccncc1 [INH, Isoniazid]
- additional effectiveness of INH in the presence of MZL: 41.5%
- effect of INH alone (without MZL): no effect
